A word on the EC50: it is the concentration that produces a half-maximal response.

For the assay, the target named is T1, α4β7 integrin (Homo sapiens, UniProt P13612+P26010).
T1 construct: monitoring the capture of α4β7 integrin expressing cells on a recombinant MadCAM-1 extracellular domain-coated plate; endogenous in cells; host or cells: RPMI8866 cells
T1 sequence (P13612 34-1032): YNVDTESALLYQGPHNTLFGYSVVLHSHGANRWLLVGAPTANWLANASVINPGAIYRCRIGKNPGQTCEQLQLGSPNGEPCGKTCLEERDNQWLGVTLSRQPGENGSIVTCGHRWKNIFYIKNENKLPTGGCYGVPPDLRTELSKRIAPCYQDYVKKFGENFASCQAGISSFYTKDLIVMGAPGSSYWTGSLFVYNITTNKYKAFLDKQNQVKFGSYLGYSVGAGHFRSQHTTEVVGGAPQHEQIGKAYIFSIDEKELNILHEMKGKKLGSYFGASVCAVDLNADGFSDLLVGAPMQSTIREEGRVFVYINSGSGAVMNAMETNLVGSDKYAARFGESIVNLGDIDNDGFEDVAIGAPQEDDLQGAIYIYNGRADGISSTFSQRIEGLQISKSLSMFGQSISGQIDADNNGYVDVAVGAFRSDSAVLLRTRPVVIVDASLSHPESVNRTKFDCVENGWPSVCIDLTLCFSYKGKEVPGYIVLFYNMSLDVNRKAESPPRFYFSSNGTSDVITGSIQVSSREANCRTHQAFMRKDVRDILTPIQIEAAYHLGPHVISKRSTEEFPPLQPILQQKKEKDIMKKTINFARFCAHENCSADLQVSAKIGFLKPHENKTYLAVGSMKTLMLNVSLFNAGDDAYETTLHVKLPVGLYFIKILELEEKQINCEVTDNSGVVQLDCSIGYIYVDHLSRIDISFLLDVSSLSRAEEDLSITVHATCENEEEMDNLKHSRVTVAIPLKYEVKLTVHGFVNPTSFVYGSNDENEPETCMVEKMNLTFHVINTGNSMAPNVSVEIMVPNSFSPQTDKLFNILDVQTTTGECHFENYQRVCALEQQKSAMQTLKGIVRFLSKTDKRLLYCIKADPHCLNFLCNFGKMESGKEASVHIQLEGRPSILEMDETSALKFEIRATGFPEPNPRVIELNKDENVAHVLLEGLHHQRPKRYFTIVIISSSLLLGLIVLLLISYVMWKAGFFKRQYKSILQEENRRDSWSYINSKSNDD
T1 sequence (P26010 20-798): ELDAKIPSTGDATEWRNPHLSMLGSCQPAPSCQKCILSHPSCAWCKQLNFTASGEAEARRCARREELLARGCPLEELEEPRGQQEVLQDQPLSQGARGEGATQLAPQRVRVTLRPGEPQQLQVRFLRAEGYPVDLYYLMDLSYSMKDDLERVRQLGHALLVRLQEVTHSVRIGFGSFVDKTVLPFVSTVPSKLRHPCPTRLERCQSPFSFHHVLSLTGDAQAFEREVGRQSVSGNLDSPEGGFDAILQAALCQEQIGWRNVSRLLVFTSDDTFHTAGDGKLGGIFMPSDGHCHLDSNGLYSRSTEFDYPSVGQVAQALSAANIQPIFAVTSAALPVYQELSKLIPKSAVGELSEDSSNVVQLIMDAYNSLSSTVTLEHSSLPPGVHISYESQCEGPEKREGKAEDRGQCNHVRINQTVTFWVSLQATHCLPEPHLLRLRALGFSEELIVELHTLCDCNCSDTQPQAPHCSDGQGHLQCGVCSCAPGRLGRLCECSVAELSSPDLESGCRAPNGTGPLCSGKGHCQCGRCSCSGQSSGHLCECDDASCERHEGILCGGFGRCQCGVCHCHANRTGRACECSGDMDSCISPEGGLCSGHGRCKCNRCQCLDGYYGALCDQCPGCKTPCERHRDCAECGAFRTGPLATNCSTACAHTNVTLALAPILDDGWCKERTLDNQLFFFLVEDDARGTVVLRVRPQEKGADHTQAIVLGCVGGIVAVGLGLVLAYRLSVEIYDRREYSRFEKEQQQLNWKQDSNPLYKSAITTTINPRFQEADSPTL
Briefly: α4β7 Integrin Cell Capture Assay. The note with it: capture of α4β7 integrin expressing RPMI8866 cells on recombinant MadCAM-1 extracellular domain-coated plate; DMEM+0.5% FBS+0.5 mM MnCl2; read-out: EC50 α4β7. The class given is cell-based. Put shortly: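 RPMI8866 cells in DMEM + 0.5% FBS + 0.5 mM MnCl2 preincubated with compound 1 h at 37 °C, then allowed to bind 30 min at 37 °C to plates coated with MAdCAM-1 extracellular domain (1.0 μg/mL). Cells fixed with glutaraldehyde, Hoechst-stained, imaged and bound cells counted; EC50 from cell count versus concentration.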

Consider `COc1cccc(OC)c1-c1ccc(C[C@H](NC(=O)c2c(F)cc(NS(=O)(=O)c3ccc(-c4ccnc(F)c4)cc3)cc2F)C(=O)O)c2nccnc12` [Example 154, (S)-2-(2,6-difluoro-4-((4-(2-fluoropyridin-4-yl)phenyl)sulfonamido)benzamido)-3-(8-(2,6-dimethoxyphenyl)quinoxalin-5-yl)propanoic acid], for which the EC50 came to 2.6 nM.
The same measure for `CCOCc1cc(OC)c(-c2ccc(C[C@H](NC(=O)c3c(F)cc(NS(=O)(=O)c4ccc(-c5ccnc(F)c5)cc4)cc3F)C(=O)O)c3nccnc23)c(OC)c1` [Example 155, (S)-2-(2,6-difluoro-4-((4-(2-fluoropyridin-4-yl)phenyl)sulfonamido)benzamido)-3-(8-(4-(ethoxymethyl)-2,6-dimethoxyphenyl)quinoxalin-5-yl)propanoic acid]: 1.6 nM.
With `O=C(N[C@@H](Cc1ccc(-c2c(Cl)cc(F)cc2Cl)c2nccnc12)C(=O)O)c1c(F)cccc1F` [Example 156, (S)-3-(8-(2,6-dichloro-4-fluorophenyl)quinoxalin-5-yl)-2-(2,6-difluorobenzamido)propanoic acid] the figure was 135 nM; with `O=C(N[C@@H](Cc1ccc(-c2c(Cl)cc(F)cc2Cl)c2nccnc12)C(=O)O)c1c(Cl)cccc1Cl` [Example 157, (S)-3-(8-(2,6-dichloro-4-fluorophenyl)quinoxalin-5-yl)-2-(2,6-dichlorobenzamido)propanoic acid], 161 nM; with `CC[C@@H](Nc1cc(F)c(C(=O)N[C@@H](Cc2ccc(-c3c(C)c4cc(F)ccc4n(C)c3=O)c3nccnc23)C(=O)O)c(F)c1)C(F)(F)F` [Example 158, (S)-2-(2,6-difluoro-4-(((R)-1,1,1-trifluorobutan-2-yl)amino)benzamido)-3-(8-(6-fluoro-1,4-dimethyl-2-oxo-1,2-dihydroquinolin-3-yl)quinoxalin-5-yl)propanoic acid], 0.4 nM.
With `Cc1c(-c2ccc(C[C@H](NC(=O)c3c(F)cccc3F)C(=O)O)c3nccnc23)c(=O)n(C)c2ccc(F)cc12` [Example 159, (S)-2-(2,6-difluorobenzamido)-3-(8-(6-fluoro-1,4-dimethyl-2-oxo-1,2-dihydroquinolin-3-yl)quinoxalin-5-yl)propanoic acid] the figure was 1.9 nM.
For the molecule `CCOCc1cc(OC)c(-c2ccc(CC(NC(=O)c3c(F)cc(NS(=O)(=O)c4ccc(-c5ccnc(F)c5)cc4)cc3F)C(=O)O)c3ccncc23)c(OC)c1` (stereo not drawn) [Example 160, 2-(2,6-difluoro-4-((4-(2-fluoropyridin-4-yl)phenyl)sulfonamido)benzamido)-3-(8-(4-(ethoxymethyl)-2,6-dimethoxyphenyl)isoquinolin-5-yl)propanoic acid], the EC50 turned out to be 0.6 nM.
On to `COc1cccc(OC)c1-c1ccc(CC(NC(=O)c2c(F)cc(NS(=O)(=O)c3ccc(-n4cncn4)cc3)cc2F)C(=O)O)c2cnccc12` (stereo not drawn) [Example 163, 2-(4-((4-(1H-1,2,4-triazol-1-yl)phenyl)sulfonamido)-2,6-difluorobenzamido)-3-(5-(2,6-dimethoxyphenyl)isoquinolin-8-yl)propanoic acid], for which the 50% effective concentration (EC50) was determined as 0.9 nM.
The same measure for `CCOCc1cc(OC)c(-c2cnc(C[C@H](NC(=O)c3c(F)cc(NS(=O)(=O)c4ccc(-c5ccnc(F)c5)cc4)cc3F)C(=O)O)c3cccnc23)c(OC)c1` [Example 166, (S)-2-(2,6-difluoro-4-((4-(2-fluoropyridin-4-yl)phenyl)sulfonamido)benzamido)-3-(8-(4-(ethoxymethyl)-2,6-dimethoxyphenyl)-1,6-naphthyridin-5-yl)propanoic acid]: 24.4 nM; for `CCOCc1cc(OC)c(-c2cnc(C[C@H](NC(=O)c3c(F)cccc3F)C(=O)O)c3cccnc23)c(OC)c1` [Example 167, (S)-2-(2,6-difluorobenzamido)-3-(8-(4-(ethoxymethyl)-2,6-dimethoxyphenyl)-1,6-naphthyridin-5-yl)propanoic acid]: 836 nM.
With `CCOCc1cc(OC)c(-c2ncc(C[C@H](NC(=O)c3c(F)cc(N[C@H](CC)C(F)(F)F)cc3F)C(=O)O)c3ccccc23)c(OC)c1` [Example 168, (S)-2-(2,6-difluoro-4-(((R)-1,1,1-trifluorobutan-2-yl)amino)benzamido)-3-(1-(4-(ethoxymethyl)-2,6-dimethoxyphenyl)isoquinolin-4-yl)propanoic acid] the figure was 26.6 nM; with `O=C(N[C@@H](Cc1ccc(-c2c(Cl)cc(F)cc2Cl)c2c1C=CCO2)C(=O)O)c1c(Cl)cccc1Cl` [Example 169, (S)-3-(8-(2,6-dichloro-4-fluorophenyl)-2H-chromen-5-yl)-2-(2,6-dichlorobenzamido)propanoic acid], 142 nM.
The same measure for `CC1(C)C=Cc2c(C[C@H](NC(=O)c3c(Cl)cccc3Cl)C(=O)O)ccc(-c3c(Cl)cc(F)cc3Cl)c2O1` [Example 170, (S)-3-(8-(2,6-dichloro-4-fluorophenyl)-2,2-dimethyl-2H-chromen-5-yl)-2-(2,6-dichlorobenzamido)propanoic acid]: 206 nM; for `Cc1nc(-c2ccc(C[C@H](NC(=O)c3c(F)cc(N4CCOC[C@@H]4C(F)(F)F)cc3F)C(=O)O)c3ccccc23)c(=O)n(C)c1C` [Example 177]: 0.22 nM; for `Cc1cc(N2CCOC[C@@H]2C(F)(F)F)cc(F)c1C(=O)N[C@@H](Cc1ccc(-n2c(=O)c3ccncc3n(C)c2=O)n2nccc12)C(=O)O` [Example 180]: 0.09 nM.
